Broadly, the solubility is how much of the substance goes into solution per volume.

A value given as a limit tells only on which side of the number the result lay.

Holding throughout (type): physicochemical
Data set [1] in a line: Evaluation of thermal properties: weight-loss initiation temperature by thermogravimetry/differential thermal analyzer STA7200. The settings on record: under atmospheric pressure. As to the method: (§1) The weight-loss initiation temperatures of compounds (1), (5), (10) and compound A, serving as a compound of a comparative example, under atmospheric pressure were measured with a thermogravimetry/differential thermal analyzer STA7200 (available from Hitachi High-Tech Science Corporation). In addition, the sublimation temperature was defined as the temperature at which the rate of weight loss under vacuum (2 Pa) reached 5% and was measured with a thermogravimetry/differential thermal analyzer TA7000 (available from Hitachi High-Tech Science Corporation).

Data set [2] in a line: Evaluation of thermal properties: sublimation temperature under vacuum by thermogravimetry/differential thermal analyzer TA7000. The settings on record: temperature at which the rate of weight loss under vacuum (2 Pa) reached 5%. Here is the method: as §1
A short description of data set [3]: Evaluation of solubility in toluene. The settings on record: organic solvent or mixture, thermodynamic from solid; 50 mg in 1 mL of toluene, stirred at room temperature. As to the method: First, 50 mg of compound (25), 50 mg of compound (29), which were synthesized in the above examples, and 50 mg of compound A as a comparative example were placed in respective sample bottles each containing 1 mL of toluene. The mixtures were stirred at room temperature to determine whether the compounds were dissolved.

The compound `CC(C)(C)c1cc2ccc3cc4c(c5ccc(c1)c2c35)-c1ccc(-c2cc(-c3ccc5c(c3)C(C)(C)c3cc6ccc7cc(C(C)(C)C)cc8ccc(c3-5)c6c78)ncn2)cc1C4(C)C` [Compound (1)] showed a Weight-loss initiation temperature in data set [1] of 450 °C. The same compound displayed a Sublimation temperature in data set [2] of 385 °C. `CC(C)(C)c1cc2ccc3cc4c(c5ccc(c1)c2c35)-c1ccc(-c2ccc(-c3ccc(-c5ccc6c(c5)C(C)(C)c5cc7ccc8cc(C(C)(C)C)cc9ccc(c5-6)c7c89)cc3)cc2)cc1C4(C)C` [Compound A] returned a Weight-loss initiation temperature in data set [1] of 550 °C. Besides, in data set [2], the Sublimation temperature was 470 °C. In addition, the solubility in data set [3] is below 50 mg/mL. On to `CC(C)(C)c1cc2ccc3cc4c(c5ccc(c1)c2c35)-c1ccc(-c2ccc3c(c2)C2(c5ccccc5-c5ccccc52)c2cc(-c5ccc6c(c5)C(C)(C)c5cc7ccc8cc(C(C)(C)C)cc9ccc(c5-6)c7c89)ccc2-3)cc1C4(C)C` [Compound (25)], for which the solubility in data set [3] is above 50 mg/mL. Consider `CC(C)(C)c1cc2ccc3cc4c(c5ccc(c1)c2c35)-c1ccc(-c2ncnc(-c3ccc5c(c3)C(C)(C)c3cc6ccc7cc(C(C)(C)C)cc8ccc(c3-5)c6c78)n2)cc1C4(C)C` [Compound (5)], for which, in data set [1], the Weight-loss initiation temperature came to 385 °C. This compound also yielded a Sublimation temperature in data set [2] of 315 °C. Turning to `CC(C)(C)c1cc2ccc3cc4c(c5ccc(c1)c2c35)-c1ccc(-c2cccc(-c3ccc5c(c3)C(C)(C)c3cc6ccc7cc(C(C)(C)C)cc8ccc(c3-5)c6c78)n2)cc1C4(C)C` [(10)], the Weight-loss initiation temperature in data set [1] amounted to 260 °C. Further, the Sublimation temperature in data set [2] stood at 205 °C.

With `CC(C)(C)c1cc2ccc3cc4c(c5ccc(c1)c2c35)-c1ccc(-c2ccc3c(c2)C2(c5ccccc5-3)c3ccccc3-c3ccc(-c5ccc6c(c5)C(C)(C)c5cc7ccc8cc(C(C)(C)C)cc9ccc(c5-6)c7c89)cc32)cc1C4(C)C` [Compound (29)], the solubility in data set [3] was above 50 mg/mL.

These data come from patent publication US20230403873A1, “ORGANIC COMPOUND AND ORGANIC LIGHT-EMITTING DEVICE” (CANON KABUSHIKI KAISHA, priority 2022, published 2023).
